Data reported in ChEMBL document CHEMBL3351689, “The discovery of indole full agonists of the neurotensin receptor 1 (NTSR1)” (Bioorg Med Chem Lett, 2014).

Columns and labels:
[1] = target: T1, Neurotensin receptor type 1 (Homo sapiens, UniProt P30989); assay: Agonist activity at NTSR1 (unknown origin) expressed in CHO cells assessed as potentiation of NT(8-13) peptide-induced change in intracellular Ca2+ level preincubated for 45 mins by FLIPR assay; type: functional, cell-based
[2] = target: T1, Neurotensin receptor type 1; assay: Antagonist activity at NTSR1 (unknown origin) expressed in CHO cells assessed as inhibition of NT(8-13) peptide-induced change in intracellular Ca2+ level preincubated for 45 mins by FLIPR assay; type: functional, cell-based

T1 sequence (P30989 whole entry): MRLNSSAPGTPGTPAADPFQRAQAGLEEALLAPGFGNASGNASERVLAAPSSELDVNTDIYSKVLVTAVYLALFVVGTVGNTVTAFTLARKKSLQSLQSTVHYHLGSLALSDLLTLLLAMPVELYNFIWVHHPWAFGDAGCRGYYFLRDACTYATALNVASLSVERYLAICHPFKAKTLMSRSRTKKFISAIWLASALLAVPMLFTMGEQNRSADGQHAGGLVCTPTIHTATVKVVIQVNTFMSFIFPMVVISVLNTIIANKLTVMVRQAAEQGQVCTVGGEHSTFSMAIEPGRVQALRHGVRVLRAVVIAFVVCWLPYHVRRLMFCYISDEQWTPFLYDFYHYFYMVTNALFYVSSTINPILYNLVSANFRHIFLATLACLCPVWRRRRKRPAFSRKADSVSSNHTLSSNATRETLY

EC50 [1] [µM] | IC50 [2] [nM] | Compound
3.26 |  | CC(C)C[C@H](NC(=O)Cn1ccc2cc(-c3cccc4ccccc34)ccc21)C(=O)O
3.28 |  | CC(C)C[C@H](NC(=O)Cn1ccc2ccc(-c3cnc4ccccc4c3)cc21)C(=O)O
 | 4 | COc1cccc(OC)c1-c1cc(C(=O)NC2(C(=O)O)C3CC4CC(C3)CC2C4)nn1-c1ccc(C(=O)N(C)CCCN(C)C)cc1C(C)C (centres undefined)
> 100 |  | O=C(O)CNC(=O)Cn1ccc2cc(-c3cnc4ccccc4c3)ccc21
9.99 |  | CC(C)C[C@H](NC(=O)Cn1ccc2cc(Br)ccc21)C(=O)O
> 100 |  | CC(C)[C@H](NC(=O)Cn1ccc2cc(-c3cccc4ccccc34)ccc21)C(=O)O
> 100 |  | O=C(O)CNC(=O)Cn1ccc2cc(-c3cccc4ccccc34)ccc21
8.99 |  | CC(C)C[C@H](NC(=O)Cn1ccc2cc(NS(=O)(=O)c3cccc4cccnc34)ccc21)C(=O)O
 | 82 | COc1cccc(OC)c1-c1cc(C(=O)NC2(C(=O)O)C3CC4CC(C3)CC2C4)nn1-c1ccnc2cc(Cl)ccc12 (centres undefined) [REMINERTANT]
15.4 |  | CC(C)C[C@H](NC(=O)Cn1ccc2cc(-c3cccnc3)ccc21)C(=O)O
> 100 |  | CC(C)C[C@@H](NC(=O)Cn1ccc2cc(-c3cnc4ccccc4c3)ccc21)C(=O)O
> 100 |  | CC(C)[C@H](NC(=O)Cn1ccc2cc(-c3cnc4ccccc4c3)ccc21)C(=O)O
4.33 |  | O=C(Cn1ccc2cc(-c3cnc4ccccc4c3)ccc21)N[C@@H](Cc1ccccc1)C(=O)O
> 100 |  | COC(=O)[C@@H](CC(C)C)NC(=O)Cn1ccc2cc(-c3cccc4ccccc34)ccc21
> 100 |  | C[C@H](NC(=O)Cn1ccc2cc(-c3cnc4ccccc4c3)ccc21)C(=O)O
6.65 |  | CC(C)C[C@H](NC(=O)Cn1ccc2ccccc21)C(=O)O
7.72 |  | CC(C)C[C@H](NC(=O)Cn1ccc2cc(Nc3ccc4cnccc4c3)ccc21)C(=O)O

EC50 [1] [µM] | IC50 [2] [nM] | Compound
2.12 |  | CC(C)C[C@H](NC(=O)Cn1ccc2cc(N(Cc3ccnc4ccccc34)Cc3ccnc4ccccc34)ccc21)C(=O)O
2.85 |  | CC(C)C[C@H](NC(=O)Cn1ccc2ccc(-c3cccc4ccccc34)cc21)C(=O)O
24.2 |  | COc1cccc(CC(=O)Nc2ccc3c(ccn3CC(=O)N[C@@H](CC(C)C)C(=O)O)c2)c1
> 100 |  | COC(=O)[C@H](CC(C)C)NC(=O)Cn1ccc2cc(-c3cccc4ccccc34)ccc21
55.1 |  | CC(C)C[C@H](NC(=O)Cn1ccc2cc(NC(=O)c3ccnc4ccccc34)ccc21)C(=O)O
> 100 |  | COC(=O)[C@@H](CC(C)C)NC(=O)Cn1ccc2cc(-c3cnc4ccccc4c3)ccc21
2.05 |  | CC(C)C[C@H](NC(=O)Cn1ccc2cc(-c3cnc4ccccc4c3)ccc21)C(=O)O
5.17 |  | CC(C)C[C@H](NC(=O)Cn1ccc2cc(-c3cnc4ccccc4c3)ccc21)c1nn[nH]n1
7.46 |  | CC(C)C[C@H](NC(=O)Cn1ccc2ccc(-c3cncc4ccccc34)cc21)C(=O)O
> 100 |  | CC(C)C[C@@H](NC(=O)Cn1ccc2cc(-c3cccc4ccccc34)ccc21)C(=O)O
4.96 |  | CC(C)C[C@H](NC(=O)Cn1ccc2cc(-c3cccc4cnccc34)ccc21)C(=O)O
9.39 |  | CC(C)C[C@H](NC(=O)Cn1ccc2cc(NS(=O)(=O)c3cccc4ccccc34)ccc21)C(=O)O
25.8 |  | CC(C)C[C@H](NC(=O)Cn1ccc2cc(N)ccc21)C(=O)O
> 100 |  | CC(C)C[C@@H](CO)NC(=O)Cn1ccc2cc(-c3cnc4ccccc4c3)ccc21
3.24 |  | CC(C)C[C@H](NC(=O)Cn1ccc2cc(-c3cncc4ccccc34)ccc21)C(=O)O
> 100 |  | COC(=O)[C@H](CC(C)C)NC(=O)Cn1ccc2cc(-c3cnc4ccccc4c3)ccc21
9.44 |  | CC(C)C[C@H](NC(=O)Cn1ccc2cc(-c3ccccc3)ccc21)C(=O)O
